Assay results published in patent US20110081675A1, “Metabolic Biomarkers Of Drug-Induced Cardiotoxicity” (WISCONSIN ALUMNI RESEARCH FOUNDATION, priority 2009, published 2011).

Columns and labels:
human cardiomyocytes = test system: human cardiomyocytes
Experimental: The percentage of cell death, inherently and after drug treatment, was calculated by Trypan Blue staining (FIG. 2).
The doses for each compound were based upon published standards, equivalent to therapeutic circulating levels whenever possible (see Table 1).

[1] = test system: human cardiomyocytes (Celprogen 36044-15at); experiment: LC-ESI-TOF-MS metabolomics of extracellular media of drug-treated human cardiomyocytes (Tables 2A-2C); assay type: cell-based; settings: for pacfold: 15uM paclitaxel; for tamfold: 15uM tamoxifen
Experimental: Data for statistical analysis were extracted from chromatograms using the Agilent Mass Hunter software (Product No. G3297AA, Agilent Technologies, Inc., Santa Clara, Calif.); it will be understood that alternative statistical analysis methods can be used. Masses were binned together if they were within 10 ppm and eluted within a 2 minutes retention time window. A binned mass was considered to be the same molecule across different LC-ESI-TOF-MS analyses (referred to herein as an “exact mass,” which will be understood to be ±10 ppm). Binning of the data is required for statistical analysis and comparison of masses across the entire experiment. If multiple peaks with the same mass at the same retention time within a single sample were detected by Mass Hunter, they were averaged to assist data analysis. Masses lacking a natural isotopic distribution or with an absolute height of less than 1000 were removed from the data prior to analysis. It would be understood that the results from this assay provide relative values that are assessed according to annotated values within 10 ppm to provide an identity for the molecular weight detected. Thus, a mass shift within 10 ppm is considered consistent with determining the identity of a specific cellular metabolite previously annotated due to differences in ionization source and instrumentation, e.g. between different experiments or using different instruments.
As used herein, a mass was considered to be the same across LC/ESI-TOF-MS runs using a simple algorithm that first sorts the data by mass and retention time. […] If a series of measurements fit this definition it was considered to be from the same compound. If either the mass or the retention time varied by more than the limits listed above it was considered to be a different compound and given a new unique designation.
The data from the most reproducible mass features was log base 2 transformed and median centered prior to statistical analysis. […] To test the null hypothesis a one way permutation based t-test assuming a normal approximation of the conditional distribution was used and implement using the Conditional Inference Procedures in a Permutation Test Framework (Coin) library, a contributed package of programming code. Statistics tests were performed without replacement of missing values decrease the degrees of freedom rather than imputing missing values. […] False discovery rates (FDR) were controlled using the Q value estimator (Storey et al., 2003, Proc Natl Acad. Sci., 100:9440-5) and implemented using the qvalue library in R (Dabney et al., 2003, qvalue: Q-value estimation for false discovery rate control. R package version 1.10.0., www.CRAN.R-project.org).
The extracellular media from treated and untreated cells was processed as described in Cezar et al., (2007, Stem Cells Development 16: 869-882, this publication is incorporated by reference), for extraction of low molecular weight molecules (<3 kD) for metabolomics analysis. Extracellular low molecular weight molecule preparations were separated by liquid chromatography followed by electrospray ionization time of flight (LC-ESI-TOF-MS) mass spectrometry for ionization and detection of the full spectra of low molecular weight molecules present in each sample. More specifically, the samples were separated using the ESI_Luna_HILIC—95_t—06OACN—16 min method (HILIC chromatography). Statistical differences were inferred by subsequent bioinformatics and in silico mapping of deisotoped ESI-TOF-MS mass features as described below (also provided in Cezar et al. (2007, id.)).
Briefly, ionization (100 m/z-1500 m/z) was acquired on an Agilent 6520 Accurate-Mass Q-TOF in extended dynamic range and positive mode. Mass features were generated using two independent methods. First MassHunter Qualitative Analysis was used to generate mass features using the Molecular Feature Extraction algorithm (MFE).

[2] = feature cpdID 36, neutral mass 101.1204, RT 0.720145, Triethylamine or Hexylamine
[3] = feature cpdID 8902, neutral mass 276.1256, RT 8.733378, no hit
[4] = feature cpdID 11232, neutral mass 311.1029, RT 7.400847, p-Glucosyloxymandelonitrile or (S)-4-Hydroxymandelonitrile beta-D-glucoside
[5] = feature cpdID 14190, neutral mass 356.253, RT 1.103957, HMDB04239, 13,14-dihydro PGE1 or Prostaglandin F1alpha
[6] = feature cpdID 15112, neutral mass 372.0557, RT […], no hit
[7] = feature cpdID 16504, neutral mass 393.0913, RT 7.25538, no hit
[8] = feature cpdID 16939, neutral mass 400.2796, RT 1.108613, 7-Ketocholesterol
[9] = feature cpdID 17096, neutral mass 403.1776, RT 6.2306, no hit
[10] = feature cpdID 19500, neutral mass 444.3034, RT 1.106333, […]-Dihydroxyvitamin D3-26,23-lactone
[11] = feature cpdID 19704, neutral mass 448.1344, RT 7.184483, no hit
[12] = feature cpdID 21926, neutral mass 488.3323, RT 1.106573, no hit
[13] = feature cpdID 23163, neutral mass 516.1241, RT 7.217222, Formononetin 7-O-glucoside-6″-O-malonate, Isochlorogenic acid b or 13-Dicaffeoylquinic acid
[14] = feature cpdID 24142, neutral mass 538.2779, RT 0.783395, no hit
[15] = feature cpdID 25601, neutral mass 576.3861, RT 1.10751, 3-Hexaprenyl-4-hydroxy-5-methoxybenzoic acid
[16] = feature cpdID 27363, neutral mass 620.4117, RT 1.108317, no hit
[17] = feature cpdID 28720, neutral mass 661.1924, RT 6.495524, no hit
[18] = feature cpdID 29101, neutral mass 672.1828, RT 6.528464, no hit
[19] = feature cpdID 29227, neutral mass 676.1781, RT 1.298314, no hit
[20] = feature cpdID 31637, neutral mass 744.1091, RT 1.26415, no hit
[21] = feature cpdID 42137, neutral mass 1122.172, RT 1.256606, no hit
[22] = feature cpdID 45209, neutral mass 1300.402, RT 6.501484, no hit
[23] = feature cpdID 45486, neutral mass 1322.385, RT 6.518707, no hit

CC(=O)O[C@H]1C(=O)[C@@]2(C)[C@H]([C@H](OC(=O)c3ccccc3)[C@]3(O)C[C@H](OC(=O)[C@H](O)[C@@H](NC(=O)c4ccccc4)c4ccccc4)C(C)=C1C3(C)C)[C@]1(OC(C)=O)CO[C@@H]1C[C@@H]2O [Paclitaxel]
cell death (in words) (human cardiomyocytes): significantly higher cell death | pacfold [1, 2]: 1.413 fold | pacfold [1, 3]: 2.728 fold | pacfold [1, 4]: 4.25 fold | pacfold [1, 5]: 12.08 fold | pacfold [1, 6]: −1.026 fold | pacfold [1, 7]: 1.219 fold | pacfold [1, 8]: 11.76 fold | pacfold [1, 9]: −2.028 fold | pacfold [1, 10]: 17.08 fold | pacfold [1, 11]: 2.694 fold | pacfold [1, 12]: 8.467 fold | pacfold ([1]; feature cpdID 23129, neutral mass 515.181, RT 10.44297, no hit): 1.263 fold | pacfold [1, 13]: 2.288 fold | pacfold [1, 14]: 1.807 fold | pacfold ([1]; feature cpdID 25445, neutral mass 572.1055, RT 7.089848, no hit): 1.259 fold | pacfold [1, 15]: 5.623 fold | pacfold [1, 16]: 3.53 fold | pacfold [1, 17]: 1.205 fold | pacfold [1, 18]: 2.408 fold | pacfold ([1]; feature cpdID 29124, neutral mass 672.6836, RT 6.559082, no hit): 1.432 fold | pacfold [1, 19]: −1.322 fold | pacfold [1, 20]: −1.129 fold | pacfold ([1]; feature cpdID 37922, neutral mass 932.7613, RT 6.562271, no hit): 1.506 fold | pacfold ([1]; feature cpdID 40510, neutral mass 1040.322, RT 6.499979, no hit): 1.465 fold | pacfold [1, 21]: −2.322 fold | pacfold [1, 22]: 1.771 fold | pacfold [1, 23]: 1.836 fold

CC/C(=C(\c1ccccc1)c1ccc(OCCN(C)C)cc1)c1ccccc1 [Tamoxifen]
tamfold [1, 2]: 1.889 fold | tamfold [1, 3]: 2.064 fold | tamfold [1, 4]: 1.708 fold | tamfold [1, 5]: 11.4 fold | tamfold [1, 6]: −1.266 fold | tamfold [1, 7]: 1.21 fold | tamfold [1, 8]: 10.16 fold | tamfold [1, 9]: −1.832 fold | tamfold [1, 10]: 15.8 fold | tamfold [1, 11]: 1.975 fold | tamfold [1, 12]: 7.564 fold | tamfold [1, 13]: 1.75 fold | tamfold [1, 14]: 2.706 fold | tamfold ([1]; feature cpdID 25561, neutral mass 575.2051, RT 7.271724, no hit): −1.008 fold | tamfold [1, 15]: 5.478 fold | tamfold [1, 16]: 3.46 fold | tamfold [1, 17]: 1.185 fold | tamfold [1, 18]: 2.364 fold | tamfold [1, 19]: −1.514 fold | tamfold [1, 20]: 1.02 fold | tamfold ([1]; feature cpdID 33162, neutral mass 791.2316, RT 6.496594, no hit): 1.968 fold | tamfold ([1]; feature cpdID 37905, neutral mass 932.2608, RT 6.542554, no hit): 1.8 fold | tamfold ([1]; feature cpdID 37938, neutral mass 933.3726, RT 8.330596, no hit): 1.939 fold | tamfold [1, 21]: −1.752 fold | tamfold [1, 22]: 1.731 fold | tamfold [1, 23]: 1.765 fold
